The source of these data is ChEMBL document CHEMBL3758074, “Structure-activity relationship study of 4-(thiazol-5-yl)benzoic acid derivatives as potent protein kinase CK2 inhibitors” (Bioorg Med Chem, 2016).

Values after ≈ are worked out from the molar mass of the structure shown.

In data set [1] the test system is A549. The data set is described as follows: Cytotoxicity against human A549 cells after 72 hrs by MTS assay. The class given is functional. Particulars: A549, 72 h. A general note: Formazan colour is commonly taken as a measure of viable cells.
Data set [2] in a line: Thermodynamic solubility of compound in 67 mM phosphate buffer at pH 7.4 after 24 hrs by HPLC analysis. It is filed as physicochemical. Particulars: read-out: Therm_solubility.
The target of data set [3] is Casein kinase II subunit alpha (Homo sapiens, UniProt P68400). The experiment in a line: Inhibition of GST-tagged human CK2alpha (1 to 391 residues) using CK2tide as substrate incubated for 1 hr by off-chip mobility shift assay.
The target of data set [4] is Casein kinase II subunit alpha' (Homo sapiens, UniProt P19784). The data set is described as follows: Inhibition of GST-tagged human CK2alpha' (1 to 350 residues) using CK2tide as substrate incubated for 1 hr by off-chip mobility shift assay.

As usually defined, the CC50 is the concentration at which the toxic effect on the cells reaches its halfway point. Take `COc1ccc(C(=O)Nc2ncc(-c3ccc(C(=O)O)cc3OCc3ccccn3)s2)cc1`: in data set [1], the CC50 was more than 30 µM.

In turn, `COc1ccc(C(=O)Nc2ncc(-c3ccc(C(=O)O)nc3)s2)cc1` yielded a CC50 in data set [1] of more than 30 µM. Also, in data set [2], the solubility thermodynamic at 24 h is 14 µg/mL (≈ 39.4 µM).

Turning to `COc1ccc(C(=O)Nc2ncc(-c3ccc(C(=O)O)cc3OCc3ccccc3F)s2)cc1`, in data set [1], the midpoint of cytotoxicity, the CC50, lay at 3.3 µM.

Turning to `COc1ccc(C(=O)Nc2ncc(-c3ccc(C(=O)O)cc3OCc3ccc(Cl)cc3)s2)cc1`, the CC50 in data set [1] came out at 2.5 µM.

With `COc1ccc(C(=O)Nc2ncc(-c3ccc(C(=O)O)cc3OCc3ccccc3Cl)s2)cc1`, half-maximal cytotoxicity in data set [1] (CC50) was put at 1.6 µM.

As usually defined, the IC50 is the concentration that inhibits the measured activity by half. Consider `COc1ccc(C(=O)Nc2ncc(-c3ccc(C(=O)O)cc3)s2)cc1`, for which the IC50 was determined as 20 nM in data set [3] and 11 nM in data set [4]. Further, half-maximal cytotoxicity in data set [1] (CC50) was put at 8.5 µM. In addition, the solubility thermodynamic at 24 h in data set [2] was found to be 2.7 µg/mL (≈ 7.62 µM).

Consider `COc1ccc(C(=O)Nc2ncc(-c3ccc(C(=O)O)cc3OCc3ccccc3C#N)s2)cc1`, for which, in data set [1], the CC50 is more than 30 µM.

In data set [1], `COc1ccc(C(=O)Nc2ncc(-c3ccc(C(=O)O)c4ccccc34)s2)cc1` registered a CC50 of more than 30 µM.

The compound `COc1ccc(C(=O)Nc2ncc(-c3ccc(C(=O)O)cc3COc3ccccc3)s2)cc1` gave a CC50 in data set [1] of 21.9 µM. This counts as double-digit micromolar.

Consider `COc1ccc(C(=O)Nc2ncc(-c3ccc(C(=O)O)cc3OCc3cccc(Cl)c3)s2)cc1`, for which it took 18.7 µM to reach half-maximal cytotoxicity in data set [1] (CC50).

With `COc1ccc(C(=O)Nc2ncc(-c3ccc(C(=O)O)cc3OCc3ccccc3)s2)cc1`, the CC50 in data set [1] was 1.5 µM.

For the compound `COc1ccc(C(=O)Nc2ncc(-c3ccc(C(=O)O)cc3OCc3ccccc3OC)s2)cc1`, half-maximal cytotoxicity in data set [1] (CC50) was put at 2 µM. Moreover, the solubility thermodynamic at 24 h in data set [2] worked out at 1.4 µg/mL (≈ 2.85 µM).

In data set [1], `COc1ccc(C(=O)Nc2ncc(-c3ccc(C(=O)O)nn3)s2)cc1` showed a CC50 of more than 30 µM. Further, in data set [2], the solubility thermodynamic at 24 h came to 1020 µg/mL (≈ 2880 µM).

Consider `COc1ccc(C(=O)Nc2ncc(-c3ccc(C(=O)O)cc3OCc3ccccc3Br)s2)cc1`, for which the CC50 in data set [1] was 1.5 µM.

In turn, `COc1ccc(C(=O)Nc2ncc(-c3ccc(C(=O)O)cc3Oc3ccccc3)s2)cc1` returned a CC50 in data set [1] of 4.7 µM.

For the compound `O=C(O)c1ccc2c(c1)nc(Nc1cccc(Cl)c1)c1ccncc12` [SILMITASERTIB], half-maximal cytotoxicity in data set [1] (CC50) was put at 9.9 µM. The solubility thermodynamic at 24 h in data set [2] amounted to 57 µg/mL (≈ 163 µM).

As to `COc1ccc(C(=O)Nc2ncc(-c3ccc(C(=O)O)cc3OCCc3ccccc3)s2)cc1`, in data set [1], the CC50 was found to be 3.6 µM.

As for `COc1ccc(C(=O)Nc2ncc(-c3ccc(C(=O)O)cn3)s2)cc1`, the CC50 in data set [1] was more than 30 µM. Also, the solubility thermodynamic at 24 h in data set [2] turned out to be 90 µg/mL (≈ 253 µM).
